Activity calls are given as the source filed them. No rule for the calls is given here.
Target: Nuclear receptor subfamily 5 group A member 2 (Homo sapiens) (UniProt O00482)
Assay: concentration-dependent NR5A2 reporter suppression – cell-based, luminescence, late stage, dose response (AID 651976)
Conditions: cell-based LRH-1 luciferase reporter, inverse agonist

Nuclear receptor subfamily 5 group A member 2 (Homo sapiens), sequence (O00482 whole entry, looked up): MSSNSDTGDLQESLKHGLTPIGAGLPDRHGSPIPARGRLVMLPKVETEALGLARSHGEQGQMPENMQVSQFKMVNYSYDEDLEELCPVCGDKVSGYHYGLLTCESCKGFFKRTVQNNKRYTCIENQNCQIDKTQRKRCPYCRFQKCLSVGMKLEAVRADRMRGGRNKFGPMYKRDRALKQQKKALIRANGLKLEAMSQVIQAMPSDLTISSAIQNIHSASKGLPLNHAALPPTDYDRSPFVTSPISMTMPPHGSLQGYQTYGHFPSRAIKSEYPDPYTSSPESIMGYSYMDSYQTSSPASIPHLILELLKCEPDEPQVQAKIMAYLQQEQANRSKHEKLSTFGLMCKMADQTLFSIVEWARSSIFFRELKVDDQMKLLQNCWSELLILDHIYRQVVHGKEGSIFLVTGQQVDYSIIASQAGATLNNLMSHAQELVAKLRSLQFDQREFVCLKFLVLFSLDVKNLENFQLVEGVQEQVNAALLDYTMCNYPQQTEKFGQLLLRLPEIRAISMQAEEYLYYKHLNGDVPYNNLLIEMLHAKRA

SMILES | IC50
CCCc1cc(=O)oc2cc(OCC(=O)NCCc3ccc(S(N)(=O)=O)cc3)ccc12 | > 35.9 µM (inactive)
CCCc1cc(=O)oc2c(C)c(OCC(=O)NCCN3CCOCC3)ccc12 | > 35.9 µM (inactive)
CCOc1ccc(OCCN2C(=O)NC(Cc3c[nH]c4ccccc34)C2=O)cc1 (stereo not drawn) | > 35.9 µM (inactive)
Cc1nn(CC(=O)Nc2ccc3c(c2)OCCO3)c(C)c1[N+](=O)[O-] | > 35.9 µM (inactive)
COc1ccc(CCNC(=O)COC(=O)c2cccn2C)cc1 | > 35.9 µM (inactive)
CCCc1cc(=O)oc2c(C)c(OCC(=O)NCCCn3ccnc3)ccc12 | > 35.9 µM (inactive)
CCCN(CC(=O)Nc1ccc(C(C)=O)cc1)CC(=O)Nc1ccccc1C | inactive
CCc1c(C)nc(SCC(=O)Nc2ccc3c(c2)OCCO3)[nH]c1=O | 7.54 µM
NC(=O)C1CCN(C(=O)COc2ccc3c4c(c(=O)oc3c2)CCCC4)CC1 | > 12 µM (inactive)
CC1SC(C)C(=O)N(CC(=O)Nc2ccc3c(c2)OCO3)C1=O (stereo not drawn) | > 35.9 µM (inactive)
O=C(CSc1nnc(CNC(=O)c2ccccc2F)o1)Nc1ccc2c(c1)OCCO2 | 0.732 µM
CC(=O)Nc1ncc(Cc2cc(Cl)ccc2Cl)s1 | 8.57 µM
CCOc1ccc(NC(=O)CSc2nncc(=O)n2N)cc1 | > 12 µM (inactive)
COc1ccc(C2(C)NC(=O)N(CC(=O)NCCC3=CCCCC3)C2=O)cc1OC (stereo not drawn) | > 35.9 µM (inactive)
CCc1cc(=O)oc2c(C)c(OCC(=O)NCCN3CCOCC3)ccc12 | > 35.9 µM (inactive)
COC(=O)c1ccc(NC(=O)CSc2nc3ncccc3[nH]2)cc1 | > 35.9 µM (inactive)
O=C(CN1C(=O)CCC1=O)Nc1ccc(Br)cc1 | 2.25 µM
COc1ccc(CCNC(=O)CSc2ccc(NC(C)=O)cc2)cc1OC | 5.44 µM
COC(=O)c1ccc(NC(=O)CSc2nncn2-c2cccnc2)cc1 | > 35.9 µM (inactive)
O=C(NCc1ccco1)c1nn(-c2ccccc2)c(=O)c2ccccc12 | 4.41 µM
O=C(NCC1CCCO1)c1ccc(NC(=O)c2cccc([N+](=O)[O-])c2)cc1 (stereo not drawn) | 0.386 µM
COCCn1c(C)cc(/C=C(\C#N)C(=O)OCC(=O)Nc2ccc(S(N)(=O)=O)cc2)c1C | > 35.9 µM (inactive)
COC(=O)c1ccc(CNC(=O)COC(=O)c2cc(Cl)nc(Cl)c2)cc1 | 3.04 µM
Cc1ccc(NC(=O)CSc2nc3[nH]c(=O)cc(O)c3s2)c(Br)c1 | inactive
Cc1cc(Br)ccc1NC(=O)CN1C(=O)CCC1=O | 1.06 µM
CCCc1nnc(SCC(=O)Nc2ccc(C(=O)OCC)cc2)o1 | > 35.9 µM (inactive)

SMILES | IC50
O=C(CSc1nnc(CNC(=O)c2c(F)cccc2F)o1)Nc1ccc2c(c1)OCCO2 | 7.05 µM
Cc1cccc(NC(=O)COC(=O)CN2C(=O)c3ccccc3C2=O)c1C | > 35.9 µM (inactive)
CC(C)CC1(C)NC(=O)N(CC(=O)Nc2ccc3c(c2)OCCO3)C1=O (stereo not drawn) | > 35.9 µM (inactive)
O=C(COC(=O)c1ccc(=O)n(Cc2ccccc2)n1)Nc1ccc2c(c1)OCCO2 | > 35.9 µM (inactive)
Cc1ccc(NC(=O)COC(=O)C(NS(=O)(=O)c2ccc(Cl)cc2)C(C)O)c(Br)c1 (stereo not drawn) | > 35.9 µM (inactive)
COCC(=O)NC1CCN(CC(=O)Nc2ccc(OC)cc2[N+](=O)[O-])CC1 | > 35.9 µM (inactive)
O=C1CCCN2N=C(SCC(=O)Nc3ccc(Br)cc3)SC2=N1 | > 35.9 µM (inactive)
COc1ccc(NS(=O)(=O)c2ccc(OCC(=O)N3CCN(C)CC3)cc2)cc1Cl | 5.3 µM
COc1ccc(CCNC(=O)COC(=O)C23CC4CC(CC(C4)C2)C3)cc1 | 1.47 µM
O=C(COc1ccc2c3c(c(=O)oc2c1)CCCC3)NCc1ccccn1 | > 35.9 µM (inactive)
O=C(OCC(=O)N1CCN(C(=O)COC(=O)c2ccc(O)cc2O)CC1)c1ccc(O)cc1O | 1.37 µM
COC(=O)c1ccc(NC(=O)CN2CCN(c3ccc(Cl)cc3)CC2)cc1 | > 35.9 µM (inactive)
COc1ccc(CCNC(=O)COC(=O)Cc2ccccc2[N+](=O)[O-])cc1 | > 35.9 µM (inactive)
Cc1cc(Br)ccc1NC(=O)CSc1nnc(CN2CCOCC2)n1C | 7.86 µM
Cc1ccc(NC(=O)COC(=O)C(NS(=O)(=O)c2ccc(Cl)cc2)C(C)O)cc1C (stereo not drawn) | 1.67 µM
COc1ccc(-n2c(N)c(C(=O)NCc3cccnc3)sc2=S)cc1 | > 35.9 µM (inactive)
Cc1cccc(NC(=O)COC(=O)Cc2cccs2)c1C | > 35.9 µM (inactive)
Cc1cc(=O)oc2c(C)c(OCC(=O)NC3CC(C)(C)NC(C)(C)C3)ccc12 | > 35.9 µM (inactive)
Cc1cc(OCC(=O)Nc2nccs2)c2c(C)cc(=O)oc2c1 | 1.25 µM
COc1ccc(NC(=O)COC(=O)c2c(-c3ccccc3)noc2C)cc1 | 0.677 µM
O=C(COC(=O)c1ccc[n+]([O-])c1)Nc1ccc([N+](=O)[O-])cc1Cl | 7.19 µM
COc1ccc(CCNC(=O)CSc2nn3c(=O)c(C)nnc3s2)cc1OC | 1.37 µM
Cc1ccc(NC(=O)COC(=O)c2cc(=O)c3ccccc3o2)c(Br)c1 | > 35.9 µM (inactive)
O=C(CSc1nc(=O)n2cc(Cl)ccc2n1)Nc1ccc2c(c1)OCCO2 | > 35.9 µM (inactive)
N#CCSc1ccccc1NC(=O)CN1C(=O)C2CC=CCC2C1=O (stereo not drawn) | inactive
COc1ccc(CCNC(=O)COC(=O)c2cc(Cl)nc(Cl)c2)cc1 | > 35.9 µM (inactive)

SMILES | IC50
COc1ccc(NC(=O)CN2C(=O)NC3(CCCC3)C2=O)cc1 | > 35.9 µM (inactive)
CCn1c(SCC(=O)Nc2ccc(Cl)cc2)nnc1C1CC1 | > 35.9 µM (inactive)
O=C(COC(=O)CCN1C(=O)C2CC=CCC2C1=O)NCCc1ccc(F)cc1 (stereo not drawn) | > 35.9 µM (inactive)
COc1ccc(NC(=O)COC(=O)c2cc(S(=O)(=O)N3CCCC3)ccc2O)cc1 | > 35.9 µM (inactive)
O=c1[nH]c(Nc2ccc3c(c2)OCCO3)nnc1Cc1ccccc1 | 2.27 µM
CCOc1ccc(NC(=O)COC(=O)CC2CCCCC2)cc1 | > 35.9 µM (inactive)
Cc1sc(NC(=O)C(C)C)c(C(=O)Nc2ccccc2)c1C | 8.16 µM
Cc1ccc(NC(=O)CSc2sc3c(O)cc(=O)[nH]c3c2C#N)c(F)c1 | > 35.9 µM (inactive)
O=C(COC(=O)c1ccc(Br)cc1)Nc1ccccc1Br | 4.11 µM
COc1ccc(NC(=O)CSc2nc(N)c(-c3ccccc3)c(=O)[nH]2)cc1 | 1.64 µM
CCOc1ccc(NC(=O)CSc2nnc(C(C)C)n2CC)cc1 | > 12 µM (inactive)
O=C(Nc1ccccc1)c1oc2ccccc2c1NC(=O)C1CC1 | 9.07 µM
CCc1cc(=O)[nH]c(SCC(=O)Nc2ccc3c(c2)OCCO3)n1 | > 35.9 µM (inactive)
CC(=O)Nc1ccc(N=c2cc([N+](=O)[O-])cc(Cl)n2O)cc1 | 0.929 µM
COc1ccccc1Oc1nnnn1-c1ccc(C(N)=O)cc1 | 9.86 µM
CC(=O)c1ccc(OC(C)C(=O)OCC(=O)NCCc2ccccc2)cc1 (stereo not drawn) | > 35.9 µM (inactive)
COc1ccc(CC(NC(C)=O)C(=O)NC2CCN(c3nnnn3-c3ccccc3)CC2)cc1 (stereo not drawn) | 0.779 µM
CC(=O)c1ccc(NC(=O)C(C)O/N=C(\N)c2ccccc2)cc1 (stereo not drawn) | 7.64 µM
COC(=O)c1ccc(NC(=O)COc2cccc(-n3cnnn3)c2)cc1 | 2.3 µM
COc1ccc(NC(=O)CSc2sc3c(O)cc(=O)[nH]c3c2C#N)c(OC)c1 | inactive
CCOc1ccc(NC(=O)CSc2nccn(-c3ccc4c(c3)OCCO4)c2=O)cc1 | 0.673 µM
Cc1ccc2cccc(OCC(=O)NCCC3=CCCCC3)c2n1 | 1.83 µM
Cc1ccc(-c2csc(NC(=O)c3ccc([N+](=O)[O-])o3)n2)cc1 | > 35.9 µM (inactive)
CCOc1ccc(OCCC(=O)OCC(=O)Nc2ccc3c(c2)OCCO3)cc1 | > 35.9 µM (inactive)
CCOc1ccc(NC(=O)CSc2nc3[nH]ncc3c(=O)[nH]2)cc1 | 1.13 µM
O=C(COc1ccc2c3c(c(=O)oc2c1)CCC3)NCc1ccncc1 | > 35.9 µM (inactive)

Reference: PubChem BioAssay AID651976 (The Scripps Research Institute Molecular Screening Center, 2013)
